Measured values published in the supplement of paper PMC12317010.
Counter-ions that a name gives are not always drawn.

Experiment: collision cross section in nitrogen (drift tube, single-field); higher = larger gas-phase ion size
[1] = ion type: [M-H], ion source: ESI, ion mode: Negative
[2] = ion type: [M+H], ion source: APCI, ion mode: Positive
[3] = ion type: [M+H], ion source: ESI, ion mode: Positive
[4] = ion type: [M+Na], ion source: ESI, ion mode: Positive
[5] = ion source: ESI, ion mode: Positive, ion type: [M]+ (permanent cation)
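Further: chemical standards at 10 µM analysed by drift tube IMS-QTOF MS in about 3.95 torr nitrogen, mean of duplicate injections differing ≤1%, mass error below 10 ppm.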

SMILES | collision cross section in nitrogen [1] [Å²] | collision cross section in nitrogen [2] [Å²] | collision cross section in nitrogen [3] [Å²] | collision cross section in nitrogen [4] [Å²] | other results
CCOP(=S)(OCC)ON=C(C#N)c1ccccc1 [Phoxim] | 165.7 | – | – | – | –
CNC(=O)Oc1ccc2c(c1)[C@]1(C)CCN(C)[C@@H]1N2C [Physostigmine] | – | 169.6 | 169.8 | 169.6 | –
CO/C=C(/C(=O)OC)c1ccccc1COc1cccc(C(F)(F)F)n1 [Picoxystrobin] | – | – | – | 179.3 | –
O=c1[nH]c2ccccc2n1C1CCN(CCCC(c2ccc(F)cc2)c2ccc(F)cc2)CC1 [Pimozide] | 215.8 | 211.9 | 211.8 | 217.6 | –
CCOc1ccc2c(ccc(C=Cc3cccc([N+](=O)[O-])c3)[n+]2C)c1 [Pinakryptol Yellow] | – | – | – | – | collision cross section in nitrogen [5]: 189.2 Å²
CCc1cc(C)cc(CC)c1-c1c(OC(=O)C(C)(C)C)n2n(c1=O)CCOCC2 [Pinoxaden] | – | 196.5 | 196.6 | 202.8 | –
CCCCOCCOCCOCc1cc2c(cc1CCC)OCO2 [Piperonyl butoxide] | – | – | – | 179.9 | –
Cc1nc(N(C)C)nc(OC(=O)N(C)C)c1C [Pirimicarb] | – | 152 | 156.4 | 164.2 | –
CCOP(=S)(OCC)Oc1cc(C)nc(N(CC)CC)n1 [Pirimiphos-ethyl] | – | 176.3 | 178.3 | 181.5 | –
CCN(CC)c1nc(C)cc(OP(=S)(OC)OC)n1 [Pirimiphos-methyl] | – | 165.5 | 167.9 | – | –
[O-][Cl+2]([O-])O [Potassium chlorate] | 104 | – | – | – | –
O=[N+]([O-])O [Potassium nitrate] | 104.9 | – | – | – | –
[O-][Cl+3]([O-])([O-])O [Potassium perchlorate] | 105.2 | – | – | – | –
O=S(=O)(O)C(F)(F)C(F)(F)C(F)(F)C(F)(F)F [Potassium perfluorobutanesulfonate] | 134.2 | – | – | – | –
O=S(=O)(O)C(F)(F)C(F)(F)C(F)(F)C(F)(F)C(F)(F)C(F)(F)F [Potassium perfluorohexanesulfonate] | 150.9 | – | – | – | –
O=S(=O)(O)C(F)(F)C(F)(F)C(F)(F)C(F)(F)C(F)(F)C(F)(F)C(F)(F)C(F)(F)F [Potassium perfluorooctanesulfonate] | 169 | – | – | – | –
C#CCC1=C(C)C(OC(=O)C2C(C=C(C)C)C2(C)C)CC1=O (configuration not stated) [Prallethrin] | – | – | – | 182.8 | –
COC(=O)c1ccccc1S(=O)(=O)NC(=O)Nc1nc(OC(F)F)cc(OC(F)F)n1 [Primisulfuron-methyl] | – | – | – | 199.7 | –
CC12CC1(C)C(=O)N(c1cc(Cl)cc(Cl)c1)C2=O (configuration not stated) [Procymidone] | 157.1 | – | – | – | –
CCCSP(=O)(OCC)Oc1ccc(Br)cc1Cl (configuration not stated) [Profenofos] | – | – | 169.5 | 184.3 | –
CCCN(CC1CC1)c1c([N+](=O)[O-])cc(C(F)(F)F)cc1[N+](=O)[O-] [Profluralin] | 172.2 | – | – | – | –
CNC(=O)Oc1cc(C)cc(C(C)C)c1 [Promecarb] | – | – | – | 157.5 | –
COc1nc(NC(C)C)nc(NC(C)C)n1 [Prometon] | – | 156.1 | 156.5 | 173.7 | –
CSc1nc(NC(C)C)nc(NC(C)C)n1 [Prometryn] | – | 160.9 | 161 | – | –
CC(C)N(C(=O)CCl)c1ccccc1 [Propachlor] | – | 143.4 | 143.2 | 161.5 | –
N#CCC#N [Propanedinitrile] | 103.8 | – | – | – | –
CC(C)[N+](C)(CCOC(=O)C1c2ccccc2Oc2ccccc21)C(C)C [Propantheline bromide] | – | – | – | – | collision cross section in nitrogen [5]: 184.1 Å²
C#CCOS(=O)OC1CCCCC1Oc1ccc(C(C)(C)C)cc1 (configuration not stated) [Propargite] | – | – | – | 186.9 | –
CCNP(=S)(OC)O/C(C)=C/C(=O)OC(C)C (configuration not stated) [Propetamphos] | 168.1 | – | – | 170.5 | –
CCCC1COC(Cn2cncn2)(c2ccc(Cl)cc2Cl)O1 (configuration not stated) [Propiconazole] | – | 180.9 | 179.8 | – | –

Second part, led by results:

collision cross section in nitrogen [1] [Å²] | collision cross section in nitrogen [2] [Å²] | SMILES | collision cross section in nitrogen [3] [Å²] | collision cross section in nitrogen [4] [Å²] | other results
176.4 | 178.8 | CCc1ccc(CCOc2ccc(CC3SC(=O)NC3=O)cc2)nc1 (configuration not stated) [Pioglitazone hydrochloride] | 178.9 | 186.7 | –
– | 176 | O=C(/C=C/C=C/c1ccc2c(c1)OCO2)N1CCCCC1 [Piperine] | 175.7 | 177.8 | –
204.3 | – | CS(=O)(=O)c1ccc([C@@H](C[C@H]2CCC(=O)C2)C(=O)Nc2cnccn2)cc1Cl [Piragliatin] | – | – | –
207.8 | 202.3 | O=C(O)C[C@H](O)C[C@H](O)/C=C/c1c(C2CC2)nc2ccccc2c1-c1ccc(F)cc1 [Pitavastatin calcium] | 203.2 | 196.7 | –
186.1 | – | CCCCCCCCC=CCCCCCCCC(=O)OCCO [Poly(oxyethylene) monoleate] | – | – | –
131.2 | – | O=S(=O)(O)c1cc(O)ccc1O [Potassium 2,5-dihydroxybenzenesulfonate] | – | – | –
137.8 | – | CCCCC(CC)C(=O)O (configuration not stated) [Potassium 2-ethylhexanoate] | – | – | –
159.1 | – | CC(=O)CC(=O)Nc1ccc(S(=O)(=O)O)cc1 [Potassium 4-acetoacetylaminobenzenesulphonate] | – | – | –
148.2 | – | O=S(=O)(O)c1ccc2cc(O)ccc2c1 [Potassium 6-hydroxynaphthalene-2-sulfonate] | – | – | –
134.6 | – | O=C(O)CNc1ccccc1 [Potassium anilinoacetate] | – | – | –
92.6 | – | I [Potassium iodide] | – | – | –
– | 152.8 | CCCN[C@H]1CCc2nc(N)sc2C1 [Pramipexole dihydrochloride monohydrate] | 152.6 | – | –
201.5 | – | CC[C@H](C)C(=O)O[C@H]1C[C@H](O)C=C2C=C[C@H](C)[C@H](CC[C@@H](O)C[C@@H](O)CC(=O)O)[C@H]21 [Pravastatin sodium] | – | 206.7 | –
– | 178.5 | O=C(C1CCCCC1)N1CC(=O)N2CCc3ccccc3C2C1 (configuration not stated) [Praziquantel] | 178.3 | 185.4 | –
– | 186.4 | C[C@]12C=CC(=O)C=C1CC[C@@H]1[C@@H]2[C@@H](O)C[C@@]2(C)[C@H]1CC[C@]2(O)C(=O)CO [Prednisolone] | – | 210.8 | –
– | 184.1 | C[C@]12C=CC(=O)C=C1CC[C@@H]1[C@@H]2C(=O)C[C@@]2(C)[C@H]1CC[C@]2(O)C(=O)CO [Prednisone] | – | 192.2 | –
189.5 | – | CC(=O)[C@H]1[C@H](C#N)C[C@H]2[C@@H]3CC=C4C[C@@H](O)CC[C@]4(C)[C@H]3CC[C@@]21C [Pregnenolone carbonitrile] | – | – | –
172.9 | – | CCCN(CCC)S(=O)(=O)c1ccc(C(=O)O)cc1 [Probenecid] | – | – | –
– | 155.9 | CCN(CC)CCOC(=O)c1ccc(N)cc1 [Procaine hydrochloride] | 157.1 | – | –
– | 159.4 | CC(C)(C#N)Nc1nc(Cl)nc(NC2CC2)n1 [Procyazine] | 159 | – | –
171.1 | – | CCCN(CCC)c1c([N+](=O)[O-])cc(C(F)(F)F)c(N)c1[N+](=O)[O-] [Prodiamine] | – | – | –
– | 143.4 | Nc1ccc2cc3ccc(N)cc3nc2c1 [Proflavin hydrochloride] | 143.9 | – | –
– | 163.3 | CC(CN1c2ccccc2Sc2ccccc21)N(C)C (configuration not stated) [Promethazine hydrochloride] | 163.7 | 172.5 | –
– | 142.7 | CCCOC(=O)NCCCN(C)C [Propamocarb hydrochloride] | 143.4 | – | –
– | 142.9 | CCCOC(=O)NCCCN(C)C [Propamocarb] | 143.3 | – | –
151.3 | – | CCCCC(CC)C(=O)OC(C)C (configuration not stated) [Propan-2-yl 2-ethylhexanoate] | – | – | –
